In series [1] the test system is Leishmania panamensis. As to the kind of experiment: Antileishmanial activity against intracellular Leishmania panamensis amastigotes infected in human U-937 cells assessed as inhibition incubated for 72 hrs by flow cytometry. The format is functional, organism-based. To be noted: U-937, 72 h. For orientation: In flow cytometry, cells or beads pass a laser one at a time.

For series [2], the system named is Leishmania panamensis. As to the kind of experiment: Antileishmanial activity against intracellular Leishmania panamensis amastigotes infected in human U-937 cells assessed as inhibition at 20 ug/mL incubated for 72 hrs by flow cytometry relative to control. Type of series: functional.
Series [3] relates to Leishmania major. In words: Antileishmanial activity against amastigote form of Leishmania major. The format is functional, organism-based.
Series [4] deals with Leishmania amazonensis. As to the kind of experiment: Antileishmanial activity against promastigote form of Leishmania amazonensis assessed as parasite growth inhibition incubated for 72 hrs by neubauer counting chamber analysis. The format is functional, organism-based.
The test system of series [5] is Leishmania amazonensis. As to the kind of experiment: Antileishmanial activity against promastigote form of Leishmania amazonensis assessed as inhibition of parasite growth at 100 uM incubated for 72 hrs by neubauer counting chamber analysis relative to control. Type of series: functional.
Series [6] concerns Leishmania braziliensis. As to the kind of experiment: Antileishmanial activity against promastigote form of Leishmania braziliensis. Type of series: functional, organism-based.
A short description of series [7]: Selectivity index, ratio of CC50 for cytotoxicity against mouse J774G8 cells to IC50 for antileishmanial activity against intracellular Leishmania amazonensis MHOM/BR/75/Josefa amastigotes infected in BALB/c mouse peritoneal macrophages. Type of series: toxicity, cell-based. As to conditions: read-out: Ratio CC50/IC50.
Series [8] has as its system Leishmania amazonensis. As to the kind of experiment: Antileishmanial activity against promastigote form of Leishmania amazonensis assessed as parasite growth inhibition incubated for 72 hrs by regression analysis. The format is functional, organism-based.
The test system of series [9] is Leishmania amazonensis. In words: Antileishmanial activity against amastigote form of Leishmania amazonensis assessed as parasite growth inhibition incubated for 72 hrs by regression analysis. Type of series: functional, organism-based.
Series [10] deals with Leishmania amazonensis. As to the kind of experiment: Antileishmanial activity against intracellular Leishmania amazonensis MHOM/BR/75/Josefa amastigotes infected in BALB/c mouse peritoneal macrophages assessed as parasite growth inhibition incubated for 24 hrs by regression analysis. The format is functional, organism-based. To be noted: Peritoneal macrophage.
Series [11] concerns Leishmania braziliensis. As to the kind of experiment: Antileishmanial activity against amastigote form of Leishmania braziliensis. The format is functional.
The subject of series [12] is Leishmania major. As to the kind of experiment: Antileishmanial activity against promastigote form of Leishmania major assessed as inhibition incubated for 48 hrs by MTT assay. The format is functional, organism-based. For orientation: Formazan colour is commonly taken as a measure of viable cells.
For series [13], the system named is Leishmania amazonensis. As to the kind of experiment: Antileishmanial activity against promastigote form of Leishmania amazonensis assessed as inhibition of parasite growth at 200 uM incubated for 72 hrs by neubauer counting chamber analysis relative to control. The format is functional.

pIC50: −log10 of the molar value. In brackets after ≈: the same amount, converted by molar mass. Several values for one entry are separate records, joined by “and”; a condition that tells them apart may be missing. Equal values may be shown once.

Broadly, the pIC50 is the IC50 on a negative log10 scale, so that one unit is a factor of ten. A word on the inhibition: it is the relative decrease from the control value, in per cent. Regarding `Cc1cc(=O)oc2cc(OCCCCOc3cc(Cl)ccc3Oc3ccc(Cl)cc3Cl)ccc12`, in the series with Leishmania panamensis [1], the pIC50 is 4.27. For the same molecule, the inhibition at 20 µg/mL with Leishmania panamensis [2] turned out to be 57.1%.
A word on the IC50: it is the concentration needed to halve the response being measured. In the series on Leishmania major [3], `COc1ccc2ccc(=O)oc2c1CC=C(C)C` [OSTHOLE] displayed an IC50 of 14.9 µg/mL (≈ 61.2 µM).
Turning to `COc1cc(OC)c2ccc(=O)oc2c1OC`, the pIC50 in the series with Leishmania amazonensis [4] is 4.24. Moreover, the inhibition at 100 µM in the series on Leishmania amazonensis [5] turned out to be 91%.
Turning to `CCC(C)C(=O)c1c(O)c(CC=C(C)C)c(O)c2c(-c3ccccc3)cc(=O)oc12` (stereo not given), the LD50 was 23.2 µg/mL and 60 µg/mL with Leishmania braziliensis [6]; 22 µg/mL in the series on Leishmania braziliensis [11]. In addition, the selectivity ratio in series [7] stood at 4.4. The IC50 in the series on Leishmania amazonensis [8] was 3 µg/mL and 7.4 µM; in the series with Leishmania amazonensis [9], 0.88 µg/mL (≈ 2.16 µM). For the same molecule, the pIC50 in the series with Leishmania amazonensis [10] is 4.84. The LC50 in the series on Leishmania braziliensis [11] (Leishmania braziliensis, read-out: LD50 (the source's name)) came to 29 µg/mL (≈ 71.3 µM).
Consider `O=c1oc2ccc(/N=C/c3ccco3)cc2cc1-c1ccc2c(c1)OCO2`, for which, in the series with Leishmania major [12], the pIC50 is 3.65.
`COc1cc2ccc(=O)oc2c2c1OC(C)(C)C=C2`: the pIC50 in the series on Leishmania amazonensis [4] was 4.15. Also, the inhibition at 200 µM in the series with Leishmania amazonensis [13] came out at 100%.

Values taken from ChEMBL document CHEMBL5244247, “Natural and synthetic coumarins as antileishmanial agents: A review” (Eur J Med Chem, 2020).
